Laboratory results taken from the supplement of paper PMC10307832.

Key:
Test in all cases: relative viability (nuclei count vs DMSO), 5 days (fraction); higher = more cells survive
[1] = compound: CCN1C(=O)C2=CC(=C(N=C2N(C1=O)C3CC3)N)C(=O)N + COc1cc2c(Oc3ccc(NC(=O)C4(C(=O)Nc5ccc(F)cc5)CC4)cc3F)ccnc2cc1OCCCN1CCOCC1 [Foretinib] (partner 0.25 µM)
Outline: (§1)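 Values are medians from duplicate plates. Each reflects relative viability, defined as the nuclei count of treated wells over that of vehicle wells. Lung cancer cell lines in 1536-well plates were pin-tool dosed one day after seeding with one drug alone or with a fixed anchor-drug dose plus five library-drug doses (not always all listed) in √10 steps, then fixed, stained and imaged at 4× after 5 days.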

[2] = compound: CCN1C(=O)C2=CC(=C(N=C2N(C1=O)C3CC3)N)C(=O)N + COc1cccc2cc(-c3nc([C@H]4CC[C@H](C(=O)O)CC4)n4ncnc(N)c34)[nH]c12 [OSI-027] (partner 0.5 µM)
Outline: as §1

[3] = compound: CCN1C(=O)C2=CC(=C(N=C2N(C1=O)C3CC3)N)C(=O)N + C[C@@H](Oc1cc(-c2cnn(C3CCNCC3)c2)cnc1N)c1c(Cl)ccc(F)c1Cl [Crizotinib] (partner 1 µM)
Outline: as §1

[4] = compound: CCN1C(=O)C2=CC(=C(N=C2N(C1=O)C3CC3)N)C(=O)N + Cc1nc(NC(=O)N2CCC[C@H]2C(N)=O)sc1-c1ccnc(C(C)(C)C(F)(F)F)c1 [Alpelisib] (partner 2 µM)
Outline: as §1

[5] = compound: CCN1C(=O)C2=CC(=C(N=C2N(C1=O)C3CC3)N)C(=O)N + N=C(N)NC(=N)NCCc1ccccc1 [Phenformin] (partner 250 µM)
Outline: as §1

Row | Cell Line | relative viability ([1]; first compound 0.8 µM) | relative viability ([1]; first compound 2.53 µM) | relative viability ([1]; first compound 8 µM) | relative viability ([2]; first compound 0.8 µM) | relative viability ([2]; first compound 2.53 µM) | relative viability ([2]; first compound 8 µM) | relative viability ([3]; first compound 0.253 µM) | relative viability ([3]; first compound 0.8 µM) | relative viability ([3]; first compound 2.53 µM) | relative viability ([3]; first compound 8 µM) | relative viability ([4]; first compound 0.253 µM) | relative viability ([4]; first compound 0.8 µM) | relative viability ([4]; first compound 2.53 µM) | relative viability ([4]; first compound 8 µM) | relative viability ([5]; first compound 0.8 µM) | relative viability ([5]; first compound 2.53 µM) | relative viability ([5]; first compound 8 µM) | relative viability ([1]; first compound 0.253 µM) | relative viability ([2]; first compound 0.253 µM) | relative viability ([5]; first compound 0.253 µM)
1 | NCI-H1666 | 0.857 | 0.948 | 1.04 | 0.838 | 0.863 | 0.834 | 1.16 | 0.998 | 0.883 | 1 | 0.985 | 0.77 | 0.969 | 1.09 | 0.562 | 0.58 | 0.558 |  |  | 
2 | NCI-H1734 | 0.764 | 0.745 | 1.01 | 0.554 | 0.531 | 0.596 | 0.716 | 0.635 | 0.618 | 0.769 | 0.658 | 0.669 | 0.688 | 0.738 | 0.365 | 0.384 | 0.361 | 0.835 | 0.734 | 0.381
3 | NCI-H1755 | 0.887 | 0.914 | 0.875 | 0.749 | 0.703 | 0.72 | 0.895 | 0.865 | 0.875 | 0.918 | 0.946 | 0.922 | 0.946 | 0.913 | 0.607 | 0.381 | 0.665 | 0.974 | 0.744 | 0.647
4 | NCI-H1915 | 1.09 | 1.11 | 1.04 | 0.638 | 0.6 | 0.679 | 0.895 | 0.921 | 0.851 | 0.911 | 1.1 | 0.985 | 1.01 | 1.06 | 0.362 | 0.376 | 0.36 | 1.05 | 0.636 | 0.367
5 | NCI-H1944 | 0.91 | 0.843 | 0.949 | 0.399 | 0.473 | 0.378 | 1.06 | 1.12 | 1.01 | 1.3 | 0.826 | 0.832 | 0.749 | 0.842 | 0.218 | 0.208 | 0.204 | 0.976 | 0.4 | 0.255
6 | NCI-H1975 | 0.916 | 0.895 | 0.951 | 0.697 | 0.604 | 0.536 | 0.948 | 0.94 | 0.97 | 0.949 | 0.635 | 0.653 | 0.614 | 0.619 | 0.417 | 0.406 | 0.375 | 1.02 | 0.809 | 0.416
7 | NCI-H1993 | 0.751 | 0.625 | 0.822 | 0.558 | 0.523 | 0.534 | 0.998 | 0.86 | 0.819 | 0.882 | 0.651 | 0.7 | 0.611 | 0.669 | 0.457 | 0.524 | 0.438 | 0.819 | 0.578 | 0.526
8 | NCI-H2009 | 1.18 | 1.2 | 1.12 | 0.622 | 0.619 | 0.621 | 1.05 | 1.03 | 0.99 | 1.05 | 1.17 | 1.11 | 1.13 | 1.09 | 0.485 | 0.453 | 0.453 | 1.2 | 0.634 | 0.481
9 | NCI-H2023 | 0.743 | 0.845 | 0.848 | 0.365 | 0.386 | 0.34 | 0.639 | 0.622 | 0.585 | 0.606 | 0.634 | 0.542 | 0.574 | 0.584 | 0.42 | 0.357 | 0.388 | 0.756 | 0.449 | 0.411
10 | NCI-H2085 | 0.874 | 0.834 | 0.947 | 0.691 | 0.738 | 0.684 | 0.861 | 0.985 | 0.84 | 1.01 | 0.96 | 0.945 | 0.924 | 1.04 | 0.666 | 0.752 | 0.684 | 0.992 | 0.728 | 0.737
11 | NCI-H2087 | 1.25 | 1.08 | 1.12 | 0.671 | 0.636 | 0.55 | 0.809 | 0.937 | 0.627 | 0.872 | 1.09 | 1.07 | 1.12 | 1.08 | 0.466 | 0.443 | 0.398 | 1.04 | 0.437 | 0.439
12 | NCI-H2126 | 0.76 | 1.09 | 1.12 | 0.541 | 0.819 | 0.747 | 1.03 | 1.02 | 1.01 | 0.977 | 0.759 | 0.734 | 0.785 | 0.734 | 0.512 | 0.522 | 0.506 | 1.34 | 0.598 | 0.553
13 | NCI-H2170 | 1 | 0.954 | 0.989 | 0.707 | 0.72 | 0.664 | 1.15 | 1.19 | 1.23 | 1.28 | 0.908 | 0.789 | 0.734 | 0.809 | 0.444 | 0.418 | 0.445 | 1.02 | 0.278 | 0.42
14 | NCI-H2228 | 0.982 | 0.82 | 0.839 | 0.674 | 0.633 | 0.645 | 0.452 | 0.535 | 0.433 | 0.507 | 0.622 | 0.669 | 0.709 | 1.16 | 0.372 | 0.331 | 0.395 | 0.95 | 0.557 | 0.405
15 | NCI-H2347 | 1.09 | 1.43 | 1.09 | 0.344 | 0.384 | 0.346 | 0.862 | 0.841 | 0.712 | 0.719 | 0.963 | 0.987 | 1.02 | 0.89 | 0.424 | 0.547 | 0.418 | 0.797 | 0.481 | 0.373
16 | NCI-H2405 | 1.05 | 1.07 | 1.06 | 0.667 | 0.604 | 0.616 | 0.866 | 0.844 | 0.817 | 0.873 | 0.909 | 0.79 | 0.767 | 0.723 | 0.388 | 0.381 | 0.395 | 1.04 | 0.664 | 0.379
17 | NCI-H3122 | 0.991 | 0.968 | 0.916 | 0.948 | 0.905 | 0.93 | 0.257 | 0.273 | 0.27 | 0.277 | 0.748 | 0.755 | 0.717 | 0.819 | 0.393 | 0.394 | 0.358 | 1.02 | 0.888 | 0.401
18 | PC-3 [JPC-3] | 1.03 | 1 | 0.929 | 0.85 | 0.735 | 0.791 | 1.04 | 0.953 | 0.914 | 0.94 | 1.06 | 1 | 0.981 | 1.16 | 0.498 | 0.508 | 0.448 | 1.02 | 0.746 | 0.468
19 | PC-14 | 0.961 | 0.954 | 0.969 | 0.799 | 0.831 | 0.907 | 0.973 | 0.939 | 0.845 | 0.941 | 0.928 | 0.942 | 0.913 | 1.06 | 0.487 | 0.75 | 0.603 | 0.914 | 0.856 | 0.507
20 | RERF-LC-KJ | 0.875 | 0.898 | 0.884 | 0.638 | 0.584 | 0.632 | 0.783 | 0.842 | 0.796 | 0.858 | 0.792 | 0.791 | 0.763 | 0.838 | 0.411 | 0.392 | 0.413 | 0.868 | 0.6 | 0.424
21 | SK-LU-1 | 0.799 | 0.839 | 1 | 0.381 | 0.353 | 0.369 | 1.11 | 0.749 | 0.805 | 0.931 | 1.1 | 0.992 | 1.04 | 1.38 | 0.587 | 0.614 | 0.561 | 0.925 | 0.414 | 0.538
22 | SK-MES-1 | 0.876 | 0.94 | 0.837 | 0.564 | 0.588 | 0.583 | 1.02 | 0.966 | 0.926 | 0.946 | 0.865 | 0.917 | 0.85 | 0.962 | 0.687 | 0.662 | 0.642 | 0.946 | 0.626 | 0.628
23 | SW 1573 | 0.762 | 0.832 | 0.933 | 0.612 | 0.675 | 0.587 | 0.855 | 0.744 | 0.696 | 0.772 | 0.731 | 0.844 | 0.644 | 0.849 | 0.472 | 0.276 | 0.364 | 0.978 | 0.534 | 0.398
24 | UMC-11 | 1.05 | 1.1 | 1.13 | 0.463 | 0.506 | 0.521 | 0.619 | 0.632 | 0.584 | 0.611 | 1.09 | 0.942 | 0.863 | 1.07 | 0.319 | 0.304 | 0.293 | 1.02 | 0.5 | 0.322
